“And” between values parts separate entries of the source, which are not always exact repeats. Equal values may be shown once. Inconclusive results and toxic doses are left out. The calls were made as follows: active = survival T/C of 150% or more; inactive = T/C below 125% in these data.
System: CD2F1 mice, L1210 leukemia ip, survival T/C
Experiment: NCI In Vivo Anticancer Drug Screen. Data for tumor model L1210 Leukemia (intraperitoneal) in CD2F1 (CDF1) mice
Conditions: higher = longer survival
How it was run: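 Antitumor effect is scored in animals hosting a serially transplanted tumor. Values compare compound-dosed animals against vehicle-only controls as a simple quotient.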

[1] = endpoint: mean survival time, dose: 75.0 mg/kg/injection, schedule: Q01DX001 (ip), vehicle: saline
[2] = endpoint: mean survival time, dose: 150.0 mg/kg/injection, schedule: Q01DX001 (ip), vehicle: saline
[3] = endpoint: mean survival time, dose: 300.0 mg/kg/injection, schedule: Q01DX001 (ip), vehicle: saline
[4] = endpoint: mean survival time, dose: 100.0 mg/kg/injection, schedule: Q01DX009 (ip), vehicle: saline with Tween-80
[5] = endpoint: mean survival time, dose: 200.0 mg/kg/injection, schedule: Q01DX009 (ip), vehicle: saline with Tween-80
[6] = endpoint: mean survival time, dose: 400.0 mg/kg/injection, schedule: Q01DX009 (ip), vehicle: saline with Tween-80
[7] = endpoint: mean survival time, dose: 100.0 mg/kg/injection, schedule: Q04DX003 (ip), vehicle: saline with Tween-80
[8] = endpoint: mean survival time, dose: 200.0 mg/kg/injection, schedule: Q04DX003 (ip), vehicle: saline with Tween-80
[9] = endpoint: mean survival time, dose: 400.0 mg/kg/injection, schedule: Q04DX003 (ip), vehicle: saline with Tween-80
[10] = endpoint: mean survival time, dose: 50.0 mg/kg/injection, schedule: Q01DX009 (ip), vehicle: saline with Tween-80

Measured: T/C

[Cl][Pt+2][Cl].[NH-]c1ccccc1[NH-]
inactive: endpoint: mean survival time, dose: 1.25 mg/kg/injection, schedule: Q01DX009 (ip), vehicle: saline with Tween-80 120 % of control | endpoint: mean survival time, dose: 10.0 mg/kg/injection, schedule: Q01DX009 (ip), vehicle: saline with Tween-80 100 % of control

O=C(O)C1CC(c2ccccc2)=NN1c1ccccc1 (stereo not drawn)
inactive: endpoint: mean survival time, dose: 12.5 mg/kg/injection, schedule: Q01DX009 (ip), vehicle: water 101 % of control and 103 % of control and 104 % of control | endpoint: mean survival time, dose: 25.0 mg/kg/injection, schedule: Q01DX009 (ip), vehicle: water 96 % of control and 101 % of control and 102 % of control | endpoint: mean survival time, dose: 50.0 mg/kg/injection, schedule: Q01DX009 (ip), vehicle: water 96 % of control and 102 % of control (2×) | endpoint: mean survival time, dose: 100.0 mg/kg/injection, schedule: Q01DX009 (ip), vehicle: water 93 % of control and 102 % of control and 104 % of control | endpoint: mean survival time, dose: 200.0 mg/kg/injection, schedule: Q01DX009 (ip), vehicle: water 102 % of control (2×) and 112 % of control

CCCCN=C1C(=O)Nc2ccccc21
inactive: [1] 98 % of control | [2] 97 % of control | [3] 95 % of control

CCOC(=O)C(=CNc1cc(C)ccn1)C(=O)OCC
inactive: [4] 109 % of control | [5] 98 % of control | [6] 94 % of control

Clc1cc(Cl)c(OCC#CI)c(Cl)c1Cl
inactive: endpoint: mean survival time, dose: 50.0 mg/kg/injection, schedule: Q01DX001 (ip), vehicle: carboxymethylcellulose (CMC) 100 % of control | endpoint: mean survival time, dose: 100.0 mg/kg/injection, schedule: Q01DX001 (ip), vehicle: carboxymethylcellulose (CMC) 100 % of control | endpoint: mean survival time, dose: 200.0 mg/kg/injection, schedule: Q01DX001 (ip), vehicle: carboxymethylcellulose (CMC) 100 % of control | endpoint: mean survival time, dose: 400.0 mg/kg/injection, schedule: Q01DX001 (ip), vehicle: carboxymethylcellulose (CMC) 103 % of control

CC1=Cc2ccc(C)cc2C(=O)C1=O
inactive: endpoint: mean survival time, dose: 1.56 mg/kg/injection, schedule: Q04DX002 (ip), vehicle: saline with Tween-80 117 % of control | endpoint: mean survival time, dose: 3.13 mg/kg/injection, schedule: Q04DX002 (ip), vehicle: saline with Tween-80 106 % of control

Cn1c(=O)cc(O)c2ccccc21
inactive: [7] 101 % of control | [8] 97 % of control | [9] 97 % of control

Cc1cccn(O)c1=NC(=O)c1ccccc1
inactive: [7] 95 % of control | [8] 105 % of control | [9] 86 % of control

CN(C)N=Nc1ccc([N+](=O)[O-])cc1C(N)=O
inactive: endpoint: mean survival time, dose: 18.8 mg/kg/injection, schedule: Q01DX009 (ip), vehicle: Klucel (hydroxypropylcellulose) (HPC) 95 % of control and 101 % of control | endpoint: mean survival time, dose: 37.5 mg/kg/injection, schedule: Q01DX009 (ip), vehicle: Klucel (hydroxypropylcellulose) (HPC) 96 % of control and 110 % of control | endpoint: mean survival time, dose: 75.0 mg/kg/injection, schedule: Q01DX009 (ip), vehicle: Klucel (hydroxypropylcellulose) (HPC) 101 % of control and 110 % of control | endpoint: mean survival time, dose: 300.0 mg/kg/injection, schedule: Q01DX009 (ip), vehicle: Klucel (hydroxypropylcellulose) (HPC) 89 % of control

NC(=S)N/N=C/c1ccc(-c2ccccc2)cc1
inactive: [7] 97 % of control

CCN(C(=O)Nc1ccc(Cl)cc1)c1ccccc1C
inactive: [4] 97 % of control | [5] 94 % of control | [6] 90 % of control

CCC(=O)OCCNc1ccc([N+](=O)[O-])cc1[N+](=O)[O-]
inactive: endpoint: mean survival time, dose: 100.0 mg/kg/injection, schedule: Q04DX002 (ip), vehicle: other 106 % of control | endpoint: mean survival time, dose: 200.0 mg/kg/injection, schedule: Q04DX002 (ip), vehicle: other 109 % of control | endpoint: mean survival time, dose: 400.0 mg/kg/injection, schedule: Q04DX002 (ip), vehicle: other 91 % of control

O=[As](O)(CC(O)c1ccccc1)c1cccc(Cl)c1 (stereo not drawn)
inactive: endpoint: mean survival time, dose: 6.25 mg/kg/injection, schedule: Q04DX003 (ip), vehicle: saline with Tween-80 104 % of control | endpoint: mean survival time, dose: 12.5 mg/kg/injection, schedule: Q04DX003 (ip), vehicle: saline with Tween-80 119 % of control

Cc1ccc(S(=O)(=O)NC(Cc2ccccc2)C(=O)CCl)cc1 (stereo not drawn)
inactive: [10] 92 % of control | [4] 96 % of control | [5] 90 % of control

CC(=O)C(C(C)=O)c1ccc([N+](=O)[O-])cc1[N+](=O)[O-].CC(=O)C(C(C)=O)c1ccc([N+](=O)[O-])cc1[N+](=O)[O-].[Cu]
inactive: endpoint: median survival time, dose: 50.0 mg/kg/injection, schedule: Q04DX002 (ip), vehicle: saline with Tween-80 88 % of control | endpoint: median survival time, dose: 100.0 mg/kg/injection, schedule: Q04DX002 (ip), vehicle: saline with Tween-80 88 % of control | endpoint: median survival time, dose: 400.0 mg/kg/injection, schedule: Q04DX002 (ip), vehicle: saline with Tween-80 88 % of control

COC(=O)C1CC2C=CC1CC2 (stereo not drawn)
inactive: endpoint: mean survival time, dose: 100.0 mg/kg/injection, schedule: Q04DX003 (ip), vehicle: saline 97 % of control | endpoint: mean survival time, dose: 200.0 mg/kg/injection, schedule: Q04DX003 (ip), vehicle: saline 105 % of control | endpoint: mean survival time, dose: 400.0 mg/kg/injection, schedule: Q04DX003 (ip), vehicle: saline 95 % of control

CN(C)N=Nc1c(F)c(F)c(C(N)=O)c(F)c1F
inactive: endpoint: mean survival time, dose: 3.13 mg/kg/injection, schedule: Q01DX009 (ip), vehicle: other 115 % of control | endpoint: mean survival time, dose: 6.25 mg/kg/injection, schedule: Q01DX009 (ip), vehicle: other 120 % of control | endpoint: mean survival time, dose: 50.0 mg/kg/injection, schedule: Q01DX009 (ip), vehicle: other 96 % of control | endpoint: mean survival time, dose: 100.0 mg/kg/injection, schedule: Q01DX009 (ip), vehicle: other 105 % of control

CCOC(=O)CCN(CC)CC
inactive: endpoint: mean survival time, dose: 100.0 mg/kg/injection, schedule: Q01DX009 (ip), vehicle: saline 106 % of control | endpoint: mean survival time, dose: 200.0 mg/kg/injection, schedule: Q01DX009 (ip), vehicle: saline 97 % of control | endpoint: mean survival time, dose: 400.0 mg/kg/injection, schedule: Q01DX009 (ip), vehicle: saline 97 % of control

CCC(=O)/C(=C\c1ccccc1Cl)C(C)=O
inactive: [4] 100 % of control | [5] 97 % of control

CC(=O)Nc1ccc(S(=O)(=O)OCCC#N)cc1
inactive: [4] 98 % of control | [5] 91 % of control

CCOC(=O)CC(=O)C(F)(F)F
inactive: [1] 95 % of control | [2] 97 % of control | [3] 101 % of control

Cc1ccccc1-[n+]1nc(-c2ccccc2)nn1-c1ccccc1
inactive: endpoint: mean survival time, dose: 1.25 mg/kg/injection, schedule: Q01DX009 (ip), vehicle: saline sonified 104 % of control | endpoint: mean survival time, dose: 5.0 mg/kg/injection, schedule: Q04DX003 (ip), vehicle: saline with Tween-80 98 % of control

COC(=O)c1cccc2c(Br)cc3ccccc3c12
inactive: endpoint: mean survival time, dose: 100.0 mg/kg/injection, schedule: Q01DX009 (ip), vehicle: Klucel (hydroxypropylcellulose) (HPC) 98 % of control | endpoint: mean survival time, dose: 100.0 mg/kg/injection, schedule: Q04DX003 (ip), vehicle: Klucel (hydroxypropylcellulose) (HPC) 102 % of control | endpoint: mean survival time, dose: 200.0 mg/kg/injection, schedule: Q01DX009 (ip), vehicle: Klucel (hydroxypropylcellulose) (HPC) 103 % of control | endpoint: mean survival time, dose: 200.0 mg/kg/injection, schedule: Q04DX003 (ip), vehicle: Klucel (hydroxypropylcellulose) (HPC) 98 % of control | endpoint: mean survival time, dose: 400.0 mg/kg/injection, schedule: Q01DX009 (ip), vehicle: Klucel (hydroxypropylcellulose) (HPC) 110 % of control | endpoint: mean survival time, dose: 400.0 mg/kg/injection, schedule: Q04DX003 (ip), vehicle: Klucel (hydroxypropylcellulose) (HPC) 108 % of control

CCOC(=O)C(CCC(C)C)C(C)=O (stereo not drawn)
inactive: endpoint: mean survival time, dose: 100.0 mg/kg/injection, schedule: Q01DX005 (ip), vehicle: saline with Tween-80 93 % of control | endpoint: mean survival time, dose: 200.0 mg/kg/injection, schedule: Q01DX005 (ip), vehicle: saline with Tween-80 103 % of control | endpoint: mean survival time, dose: 400.0 mg/kg/injection, schedule: Q01DX005 (ip), vehicle: saline with Tween-80 106 % of control

CCCC/C=C/C(C)O (stereo not drawn)
inactive: [10] 100 % of control | [4] 100 % of control | [7] 98 % of control | [5] 95 % of control | [8] 103 % of control | [9] 103 % of control

— PubChem BioAssay AID256 (DTP/NCI, 2004)
